{"source": "patent US20240352536A1", "about": "“Assay for Predicting Risk of Capecitabine-Induced Toxicity in a Subject” (Oxford University Innovation Ltd., priority 2021, published 2024)", "key": {"[1]": {"biological_target": "T1, dihydropyrimidine dehydrogenase (DPYD) (Homo sapiens, UniProt Q12882)", "T1 construct": "degraded in the liver by dihydropyrimidine dehydrogenase (DPYD); host or cells: liver (in vivo, endogenous enzyme)", "T1 sequence (Q12882 4-1025)": "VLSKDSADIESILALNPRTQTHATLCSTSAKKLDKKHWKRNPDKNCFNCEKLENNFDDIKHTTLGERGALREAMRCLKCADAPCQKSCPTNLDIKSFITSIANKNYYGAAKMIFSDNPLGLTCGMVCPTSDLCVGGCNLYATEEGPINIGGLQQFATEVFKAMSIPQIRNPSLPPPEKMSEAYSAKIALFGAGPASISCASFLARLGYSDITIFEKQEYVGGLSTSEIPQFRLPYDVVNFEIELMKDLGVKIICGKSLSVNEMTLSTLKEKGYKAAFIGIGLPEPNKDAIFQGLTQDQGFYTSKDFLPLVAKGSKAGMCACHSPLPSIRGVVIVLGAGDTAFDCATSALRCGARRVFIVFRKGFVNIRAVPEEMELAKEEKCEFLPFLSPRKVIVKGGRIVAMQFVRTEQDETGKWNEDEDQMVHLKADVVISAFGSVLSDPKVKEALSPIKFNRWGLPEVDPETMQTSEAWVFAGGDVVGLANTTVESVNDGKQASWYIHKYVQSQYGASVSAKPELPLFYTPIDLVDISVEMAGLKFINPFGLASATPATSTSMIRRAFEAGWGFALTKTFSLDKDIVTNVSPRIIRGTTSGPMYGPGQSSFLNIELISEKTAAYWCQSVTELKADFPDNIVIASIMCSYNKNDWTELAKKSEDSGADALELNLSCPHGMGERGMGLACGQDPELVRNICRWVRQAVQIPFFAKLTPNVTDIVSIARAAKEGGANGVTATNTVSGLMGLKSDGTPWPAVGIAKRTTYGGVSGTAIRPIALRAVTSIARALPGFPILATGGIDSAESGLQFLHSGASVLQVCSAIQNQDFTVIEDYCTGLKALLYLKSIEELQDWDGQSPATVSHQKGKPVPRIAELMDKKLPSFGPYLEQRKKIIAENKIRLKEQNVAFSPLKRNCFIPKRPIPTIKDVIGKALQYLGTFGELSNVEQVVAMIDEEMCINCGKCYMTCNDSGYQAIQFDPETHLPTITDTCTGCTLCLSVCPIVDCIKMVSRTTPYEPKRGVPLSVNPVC", "details": "cited from earlier work"}, "[2]": {"details": "cited from earlier work"}, "[3]": {"assay": "QUASAR2 trial: adverse events graded after each treatment cycle with NCI CTCAE version 3.0", "type": "in vivo, human", "experimental": "The QUASAR2 study (http://www.octo-oxford.org.uk/alltrials/infollowup/q2.html; http://www.controlled-trials.com/ISRCTN45133151/) is a phase III randomised controlled trial of capecitabine (Xeloda) (1250 mg/m2 twice daily d1-14 every 3 weeks, total of 8 cycles)+/−bevacizumab (7.5 mg/kg every three weeks) following resection of stage II/III CRC. Patients were entered into the study between July 2005 and December 2011 at 123 UK and 81 non-UK sites. Of 1119 patients with blood collected as of July 2010, 1046 were selected for study based on availability of clinical data and informed consent.\nAdverse events were graded following each treatment cycle using the NCI Common Toxicity Criteria for Adverse Events (CTCAE) version 3.0. Common capecitabine-induced toxicities—diarrhoea, nausea and vomiting, mucositis/stomatitis, neutropaenia, thrombocytopaenia, and HFS—were analysed individually and also in combination as “global” toxicity. Adverse events were categorised as low (CTCAE grade 0/1/2) and high (CTCAE grade 3/4/5 at any treatment cycle). Hypertension and proteinuria were clearly related to bevacizumab (˜10-fold higher incidence) and were not included in the analysis.\nGenome wide SNP genotypes and per treatment cycle toxicity data was available for 930 patients with stage II and III colorectal cancer treated with capecitabine in the QUASAR2 trial. […] Genotype data was imputed using IMPUTE2 and the UK10K and 1000 genomes merged reference panels. Common Terminology Criteria for Adverse Events (CTCAE) v3.0 was used to grade toxicity events. Patients with ≥grade 3 toxicities in the first two treatment cycles and across all cycles were coded as cases for analysis. Binary coded variables were generated for capecitabine-induced toxicities: diarrhoea, haematological, hand-foot syndrome, mucositis and vomiting. The mucositis toxicity variable captured cases with mucositis and/or stomatitis and haematological toxicity consisted of neutropenia and/or thrombocytopenia cases. A global toxicity phenotype was also analysed with cases having any grade 3 event of one of the aforementioned toxicities. The study was powered at 80% to detect variants with MAF>10% having effect sizes≥2. Association testing was performed using SNPTEST v2.5. The two QUASAR2 trial arms (capecitabine alone and capecitabine plus bevacizumab) were analysed separately and then meta-analysed using META v1.7. […] Gene annotation of the outputs was performed using Variant Effect Predictor (VEP) and ANNOVAR to determine the impact of each variant and distance to the nearest gene. Top independent SNPs were identified from multi-SNP-based conditional and joint association (COJO) analysis using Genome-wide Complex Trait Analysis (GCTA). V1.93.2. Receiver operator curve (ROC) analysis was performed in statistical software R."}, "[4]": {"details": "early onset, Cycles 1 & 2 (n = 930), QUASAR 2"}}}
{"compound": "O=c1[nH]cc(F)c(=O)[nH]1", "note": "[5-FU, 5-fluorouracil]", "values": [{"measurement": "share of drug degraded in the liver by DPYD prior to activation", "setting": "[1]", "value": "~80", "unit": "%"}, {"measurement": "mortality (Grade 5, CTCAE version 3.0) associated with use", "setting": "[2]; overall", "value": "0.5-1.0%"}, {"measurement": "patients who suffer substantial toxicities (Grade 3 or above, CTCAE version 3.0)", "setting": "[2]; patients administered 5-FU-based therapy", "value": "10-30%"}, {"measurement": "fatality rate", "setting": "[2]; patients with colorectal cancer, serious toxicities from 5-FU", "value": "approximately 1%"}, {"measurement": "share of patients who experienced serious (CTCAE≥grade 3) toxicities", "setting": "[2]; patients with colorectal cancer", "value": "Approximately a third"}]}
{"compound": "CCCCCOC(=O)Nc1nc(=O)n(C2OC(C)C(O)C2O)cc1F", "note": "(centres unmarked) [capecitabine, pentyl [1-(3,4-dihydroxy-5-methyltetrahydrofuran-2-yl)-5-fluoro-2-oxo-1H-pyrimidin-4-yl]carbamate]", "values": [{"measurement": "Diarrhoea, Grade 0-2 (%)", "setting": "[3]; [4]", "value": 92.9, "unit": "%"}, {"measurement": "Diarrhoea, Grade 3-4 (%)", "setting": "[3]; [4]", "value": 6.9, "unit": "%"}, {"measurement": "Global toxicity, Grade 0-2 (%)", "setting": "[3]; [4]", "value": 84.6, "unit": "%"}, {"measurement": "Global toxicity, Grade 3-4 (%)", "setting": "[3]; [4]", "value": 15.3, "unit": "%"}, {"measurement": "Haematological toxicity, Grade 0-2 (%)", "setting": "[3]; [4]", "value": 98.4, "unit": "%"}, {"measurement": "Haematological toxicity, Grade 3-4 (%)", "setting": "[3]; [4]", "value": 1.3, "unit": "%"}, {"measurement": "Hand-foot syndrome, Grade 0-2 (%)", "setting": "[3]; [4]", "value": 91.4, "unit": "%"}, {"measurement": "Hand-foot syndrome, Grade 3-4 (%)", "setting": "[3]; [4]", "value": 8.3, "unit": "%"}, {"measurement": "Mucositis, Grade 0-2 (%)", "setting": "[3]; [4]", "value": 98.7, "unit": "%"}, {"measurement": "Mucositis, Grade 3-4 (%)", "setting": "[3]; [4]", "value": 1.1, "unit": "%"}, {"measurement": "Vomiting, Grade 0-2 (%)", "setting": "[3]; [4]", "value": 98.7, "unit": "%"}, {"measurement": "Vomiting, Grade 3-4 (%)", "setting": "[3]; [4]", "value": 0.9, "unit": "%"}, {"measurement": "share of patients who suffer dose-limiting levels of drug-induced adverse events", "setting": "[2]; capecitabine patients", "value": "approximately one third"}, {"measurement": "mortality from rapid onset of toxicity relative to infusional and bolus 5-FU regimens (0.5% to 2%)", "setting": "[2]; capecitabine schedules", "value": "about half that number"}]}
{"compound": "bevacizumab: given with capecitabine in one QUASAR2 arm (7.5 mg/kg every three weeks)", "values": [{"measurement": "higher incidence of hypertension and proteinuria", "setting": "[3]; QUASAR2, capecitabine plus bevacizumab arm versus capecitabine alone", "value": "~10", "unit": "fold"}]}
